Measurements as given in the supplement of paper PMC11451515.

Test system: SEM cells
Experiment: cell viability relative to DMSO control; higher = less cytotoxic
Conditions: 48 h
Procedure, shortened: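 Viability was expressed as a per-plate percentage of DMSO wells, with cell-free wells as background. Leukemia cells (NOMO1 or SEM at 500 cells/well, P12-Ichikawa at 1000 cells/well) were adapted for at least four passages in each medium and seeded in 1536-well plates (5 μl). Library compounds in DMSO were pin-dosed over an 11-point threefold series from 47 μM to 0.79 nM, and CellTiter-Glo One luminescence was read after 48 h at 37°C.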

[1] = HPLM + 10% dialyzed FBS, 0.000781 µM
[2] = HPLM + 10% dialyzed FBS, 0.00234 µM
[3] = HPLM + 10% dialyzed FBS, 0.00702 µM
[4] = HPLM + 10% dialyzed FBS, 0.0211 µM
[5] = HPLM + 10% dialyzed FBS, 0.0632 µM
[6] = HPLM + 10% dialyzed FBS, 0.19 µM
[7] = HPLM + 10% dialyzed FBS, 0.569 µM
[8] = HPLM + 10% dialyzed FBS, 1.71 µM
[9] = HPLM + 10% dialyzed FBS, 5.12 µM
[10] = HPLM + 10% dialyzed FBS, 15.4 µM
[11] = HPLM + 10% dialyzed FBS, 46.1 µM
[12] = RPMI 5 mM glucose + 10% FBS, 0.000781 µM
[13] = RPMI 5 mM glucose + 10% FBS, 0.00234 µM
[14] = RPMI 5 mM glucose + 10% FBS, 0.00702 µM
[15] = RPMI 5 mM glucose + 10% FBS, 0.0211 µM
[16] = RPMI 5 mM glucose + 10% FBS, 0.0632 µM
[17] = RPMI 5 mM glucose + 10% FBS, 0.19 µM
[18] = RPMI 5 mM glucose + 10% FBS, 0.569 µM
[19] = RPMI 5 mM glucose + 10% FBS, 1.71 µM
[20] = RPMI 5 mM glucose + 10% FBS, 5.12 µM
[21] = RPMI 5 mM glucose + 10% FBS, 15.4 µM
[22] = RPMI 5 mM glucose + 10% FBS, 46.1 µM
[23] = RPMI 5 mM glucose + 10% dialyzed FBS, 0.000781 µM
[24] = RPMI 5 mM glucose + 10% dialyzed FBS, 0.00234 µM
[25] = RPMI 5 mM glucose + 10% dialyzed FBS, 0.00702 µM
[26] = RPMI 5 mM glucose + 10% dialyzed FBS, 0.0211 µM
[27] = RPMI 5 mM glucose + 10% dialyzed FBS, 0.0632 µM
[28] = RPMI 5 mM glucose + 10% dialyzed FBS, 0.19 µM
[29] = RPMI 5 mM glucose + 10% dialyzed FBS, 0.569 µM
[30] = RPMI 5 mM glucose + 10% dialyzed FBS, 1.71 µM
[31] = RPMI 5 mM glucose + 10% dialyzed FBS, 5.12 µM
[32] = RPMI 5 mM glucose + 10% dialyzed FBS, 15.4 µM
[33] = RPMI 5 mM glucose + 10% dialyzed FBS, 46.1 µM

Structure (SMILES) | cell viability [1] [%] | cell viability [2] [%] | cell viability [3] [%] | cell viability [4] [%] | cell viability [5] [%] | cell viability [6] [%] | cell viability [7] [%] | cell viability [8] [%] | cell viability [9] [%] | cell viability [10] [%] | cell viability [11] [%] | cell viability [12] [%] | cell viability [13] [%] | cell viability [14] [%] | cell viability [15] [%] | cell viability [16] [%] | cell viability [17] [%] | cell viability [18] [%] | cell viability [19] [%] | cell viability [20] [%] | cell viability [21] [%] | cell viability [22] [%] | cell viability [23] [%] | cell viability [24] [%] | cell viability [25] [%] | cell viability [26] [%] | cell viability [27] [%] | cell viability [28] [%] | cell viability [29] [%] | cell viability [30] [%] | cell viability [31] [%] | cell viability [32] [%] | cell viability [33] [%]
CC(C)C[C@H](NC(=O)CNC(=O)c1cc(Cl)ccc1Cl)B(O)O | 86.3 | 77.4 | 109 | 19.6 | 107 | 12.5 | 7.52 | 6.82 | 6.78 | 4.58 | 3.36 | 88.4 | 85.9 | 103 | 15.2 | 113 | 11.4 | 7.76 | 5.7 | 4.81 | 3.3 | 2.05 | 83.2 | 68.2 | 90.6 | 16.8 | 107 | 17.6 | 7.97 | 6.58 | 5.53 | 4.01 | 2.9
Cc1cc(Nc2nc(N[C@@H](C)c3ccc(F)cc3)c(C#N)cc2F)n[nH]1 | 120 | 106 | 114 | 110 | 101 | 95 | 99.1 | 88.7 | 23.4 | 15 | 7.41 | 112 | 104 | 111 | 112 | 107 | 112 | 103 | 93.4 | 24.1 | 13.3 | 6.68 | 104 | 100 | 106 | 105 | 93.9 | 101 | 100 | 76.9 | 23.9 | 16.7 | 6.42
Nc1nnc(-c2cccc(Cl)c2Cl)c(N)n1 | 80.7 | 80 | 98.9 | 21.9 | 96.6 | 92.1 | 96.5 | 103 | 105 | 115 | 92.4 | 71.7 | 74.5 | 85.2 | 13.1 | 97.6 | 96.7 | 104 | 99.1 | 99.9 | 90.4 | 89.7 | 88.5 | 88.1 | 88.2 | 16.1 | 92.1 | 97.5 | 103 | 101 | 101 | 107 | 113
NC(=O)C1CCCc2c1[nH]c1ccc(Cl)cc21 (stereo not given) | 115 | 120 | 129 | 125 | 119 | 141 | 126 | 64.8 | 27.4 | 3.88 | 1.72 | 119 | 122 | 134 | 133 | 126 | 118 | 140 | 115 | 63.3 | 5.97 | 1.78 | 109 | 107 | 109 | 108 | 111 | 126 | 108 | 76.8 | 47.4 | 6.13 | 2.95
CN[C@@H](C)C(=O)N[C@H]1CN(C(=O)CC(C)C)CC[C@H]2CC[C@@H](C(=O)NC(c3ccccc3)c3ccccc3)N2C1=O | 76.3 | 90.5 | 98.3 | 100 | 98.1 | 93.7 | 99 | 103 | 99.9 | 71.4 | 41 | 107 | 103 | 105 | 110 | 104 | 102 | 96.7 | 83.5 | 74.2 | 56.5 | 38.5 | 95.5 | 86.1 | 92.8 | 104 | 106 | 97.9 | 102 | 95.1 | 77.7 | 61 | 36.2
COC[C@H](c1ccc(C(F)(F)F)cc1)N1CCN(C2(C)CCN(C(=O)c3c(C)ncnc3C)CC2)C[C@H]1C.O=C(O)/C=C\C(=O)O | 80.5 | 98.2 | 105 | 93.5 | 90 | 104 | 90.2 | 92 | 99.8 | 95.4 | 61.8 | 66 | 94.5 | 82.9 | 97.5 | 85.6 | 87.6 | 84.5 | 99.6 | 92.4 | 83.8 | 59.6 | 85.2 | 93.2 | 97.1 | 108 | 88.6 | 97.3 | 103 | 104 | 84 | 98 | 65.8
CN1CCC[C@@H]1CCO[C@](C)(c1ccccc1)c1ccc(Cl)cc1 | 85.8 | 96.5 | 102 | 104 | 122 | 108 | 99.1 | 115 | 111 | 104 | 81.4 | 103 | 116 | 118 | 117 | 115 | 115 | 112 | 114 | 124 | 118 | 97.4 | 86.1 | 110 | 107 | 104 | 114 | 121 | 109 | 116 | 115 | 118 | 93
O=C(Nc1ncc(-c2cc(C(F)F)nn2-c2c(Cl)cccc2Cl)s1)C1CC1 | 101 | 113 | 102 | 128 | 121 | 124 | 118 | 47 | 20.5 | 21.9 | 8.41 | 112 | 106 | 123 | 131 | 127 | 137 | 124 | 31.5 | 14.8 | 14.8 | 4.67 | 115 | 103 | 99.9 | 137 | 127 | 123 | 130 | 37.2 | 17.8 | 22 | 5.55
CN1CCCC(CC1)N2\N=C(CC3=CC=C(Cl)C=C3)/C4=C(C=CC=C4)C2=O (stereo not given) | 92.9 | 110 | 104 | 114 | 110 | 112 | 99.1 | 106 | 111 | 101 | 74.9 | 72.4 | 78.3 | 71.9 | 79.5 | 81.8 | 94.8 | 90.2 | 98.9 | 83.8 | 80.6 | 73.1 | 91.7 | 108 | 96.2 | 102 | 112 | 105 | 108 | 121 | 96.5 | 109 | 97.6
ClC1=CC\2=C(OC3=C(C=CC=C3)\N=C2N4CCNCC4)C=C1 | 110 | 90.9 | 114 | 108 | 117 | 116 | 112 | 105 | 119 | 95.2 | 89 | 94.5 | 49.6 | 95 | 90.4 | 94.1 | 93.3 | 103 | 99.7 | 104 | 89.3 | 86.8 | 104 | 80.1 | 113 | 106 | 117 | 105 | 111 | 107 | 119 | 103 | 91
CN1CCN2c3ncccc3Cc3ccccc3C2C1 (stereo not given) | 115 | 91.6 | 101 | 97.4 | 98.9 | 106 | 22 | 112 | 112 | 89.5 | 101 | 116 | 116 | 108 | 121 | 114 | 129 | 16.9 | 122 | 127 | 111 | 97 | 137 | 116 | 113 | 124 | 134 | 136 | 28.7 | 129 | 126 | 124 | 122
CCN(C(=O)C/1=C(O)/C2=C(C=CC=C2Cl)N(C)C1=O)C3=CC=CC=C3 | 79.9 | 92.1 | 99.3 | 93.5 | 84.6 | 61.8 | 62 | 25.8 | 9.79 | 3.62 | 3.31 | 88.2 | 90.7 | 99.6 | 97.6 | 89.5 | 43 | 53.8 | 14.4 | 5.29 | 3.41 | 3.37 | 93.1 | 80.1 | 85.4 | 97.8 | 80.2 | 42.8 | 49.6 | 26.9 | 6.32 | 3.84 | 3.31
CC[C@H](C)C(=O)O[C@H]1C[C@H](O)\C=C2\C=C/[C@H](C)[C@H](CC[C@@H](O)C[C@@H](O)CC(O)=O)[C@@H]12 | 118 | 114 | 116 | 111 | 125 | 129 | 121 | 126 | 103 | 106 | 92.9 | 98.7 | 110 | 121 | 124 | 113 | 126 | 107 | 118 | 95.8 | 108 | 102 | 123 | 109 | 121 | 125 | 129 | 109 | 121 | 110 | 119 | 120 | 86.2
COCCOc1nc(-c2ccc(Cl)c(Cl)c2)n(-c2ccc(NC(=O)CCl)cc2)n1 | 85.5 | 95.4 | 87.5 | 103 | 104 | 103 | 94.2 | 97.6 | 83.6 | 83.1 | 84.6 | 80 | 106 | 98.5 | 89.9 | 102 | 85.7 | 95.4 | 88 | 83.4 | 79.1 | 80.6 | 92.2 | 91.4 | 96.4 | 91 | 95.1 | 102 | 94.2 | 81.6 | 80.2 | 80.2 | 85.1
CC[C@@]1(O)C(=O)OCC/2=C1/C=C3\N(CC4=CC5=CC(=CC=C5N=C34)O)C2=O | 120 | 128 | 120 | 104 | 58.8 | 20.9 | 18.9 | 8.26 | 7.73 | 6.07 | 5.91 | 79.1 | 81.5 | 73 | 70.2 | 22.6 | 11.6 | 9.45 | 6.47 | 5.43 | 3.87 | 4.1 | 99.6 | 112 | 114 | 93.1 | 43 | 17.9 | 13 | 7.18 | 6.51 | 6.28 | 4.96
